Reference: patent US11338026B2, “Identification of immunologically protective neo-epitopes for the treatment of cancers” (THE UNIVERSITY OF CONNECTICUT, priority 2014, dated 2022)
Entries after “also recorded” stand apart in the source; their conditions may differ. Like-named read-outs stand apart in the source and are kept apart here. Peptide text beside a SMILES is read from it.

How the values were obtained:
CD8+ cells [1] = assay: IFNγ ELISPOT on CD8+ cells of immunized mice; assay type: in vivo, BALB/c mice; conditions: for ELISpot: mice immunized with mutant peptide; for CD8 T cell response of immunized mice: ELISPOT
Method: For the ELISPOT assays, the negative controls were CD8+ cells from immunized mice without peptide stimulation. […] The magnitude of responses was rated by mean spot numbers per million CD8+ cells: 5-10 (+); 11-20 (++); 21-50 (+++); 51-100(++++) and >100(+++++).
(§1) All 18 peptides were used to immunize BALB/c mice. The draining lymph nodes (dLNs) of immunized mice were harvested one week after the single immunization, and the cells were stimulated in vitro for 16 h without any added peptide, the mutant peptide used for immunization, or the corresponding wild type peptide. The CD8+ cells were analyzed for activation (CD44+) and effector function (intracellular IFNγ+). (see Materials and Methods regarding the details of FACS analysis.) All possible patterns of immune-reactivity were observed (FIG. 3A): no immune response (12/18), a mutant peptide-specific, i.e. tumor-specific immune response (5/18), and a cross-reactive response between the mutant and corresponding wild type peptides (1/18).

H-2 K^d = target: T1, H-2 K^d (Mus musculus, UniProt P01902); assay: Binding assays: inhibition of binding of a radiolabeled standard peptide to purified MHC molecules
T1 sequence (P01902 22-368): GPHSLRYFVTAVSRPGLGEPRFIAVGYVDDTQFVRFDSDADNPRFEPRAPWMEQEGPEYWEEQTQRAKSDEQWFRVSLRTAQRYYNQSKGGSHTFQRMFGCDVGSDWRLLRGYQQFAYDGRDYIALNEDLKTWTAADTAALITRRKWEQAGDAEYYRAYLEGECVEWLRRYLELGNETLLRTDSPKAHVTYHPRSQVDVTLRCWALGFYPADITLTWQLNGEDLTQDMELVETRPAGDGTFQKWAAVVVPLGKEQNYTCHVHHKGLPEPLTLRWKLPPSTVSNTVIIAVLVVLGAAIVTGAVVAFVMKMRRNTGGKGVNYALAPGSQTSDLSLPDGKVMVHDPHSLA
T1 sequence (P01887 21-119 partner): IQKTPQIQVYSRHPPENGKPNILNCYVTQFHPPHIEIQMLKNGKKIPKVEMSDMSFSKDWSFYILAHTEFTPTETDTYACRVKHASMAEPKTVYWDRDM
Method: Binding assays. Binding of peptides to H-2 K^d was determined using quantitative assays based on the inhibition of binding of a radiolabeled standard peptide to purified MHC molecules essentially as described previously. […] Under the conditions utilized, where [label]<[MHC] and IC50≥[MHC], the measured IC50 values are reasonable approximations of the dissociation constant values.

CD8+ cells [2] = assay: Intracellular IFN-γ assay by FACS (ICS) on lymphocytes of immunized mice; assay type: in vivo, BALB/c mice; conditions: mice immunized with the WT counterpart of the named neo-epitope
Method: Intracellular IFN-γ assay by FACS and ELISPOT. Lymphocytes were incubated either with or without 1-10 μg/ml peptide. GolgiPlug (BD Biosciences, San Jose, Calif.) was added 1 h later. After incubation of 12 to 16 h, cells were stained for CD44 (clone IM7), CD4 (clone GK1.5) and CD8 (clone 53-6.7) (BD Biosciences, San Jose, Calif.), fixed and permeabilized using the Cytofix/Cytoperm™ kit (BD Biosciences, San Jose, Calif.), and stained for intracellular IFN-γ using Phycoerythrin-conjugated anti-mouse IFN-γ (clone XMG1.2, BD Biosciences, San Jose, Calif.). Cells were stained with 1 μl antibody/million cells in 50 μl staining buffer (PBS with 1% bovine serum albumin) and incubated for 20 min at 4° C. in the dark, or according to the manufacturer's instructions. Cells without peptide stimulation were used as a negative control, and the values for these controls was very close to the values seen with the negative control peptide. Typically, 95,000-129,000 lymphocytes (14,500-17,000 CD8+CD4− cells) were acquired. The background is consistently very low (10% of the signal).
as §1

[3] = mutant peptide, read-out: Measured IC50 for K^d (Mut/WT): Mut
[4] = WT counterpart peptide, read-out: Measured IC50 for K^d (Mut/WT): WT

With `CC[C@H](C)[C@H](NC(=O)[C@@H](NC(=O)[C@H](C)NC(=O)[C@H](Cc1ccc(O)cc1)NC(=O)[C@H](CCC(N)=O)NC(=O)[C@@H](NC(=O)[C@H](CC(C)C)NC(=O)[C@H](Cc1ccc(O)cc1)NC(=O)[C@@H]1CCCN1)[C@@H](C)O)[C@@H](C)CC)C(=O)O` [Dhx8.3, P(y/D)LTQYAII] (H-PYLTQYAII-OH) the ELISpot (CD8+ cells [1]) was “+++++ (>100 spots/10^6 CD8 = +++++)”, the IC50 (H-2 K^d) was 1.42 µM and the IC50 (H-2 K^d; [3]) was 0.244 µM.

In the case of `CC(C)C[C@H](NC(=O)[C@H](Cc1ccc(O)cc1)NC(=O)[C@@H](N)CC(C)C)C(=O)N[C@@H](CC(=O)O)C(=O)N[C@@H](CO)C(=O)N[C@@H](CCCCN)C(=O)N[C@@H](CO)C(=O)N[C@@H](CC(=O)O)C(=O)N[C@H](C(=O)N[C@H](C(=O)N[C@H](C(=O)O)C(C)C)[C@@H](C)O)[C@@H](C)O` [Alms1.1], the “immunogenicity of WT counterpart (functional effector T cells)” value (CD8+ cells [2]) is reported as “elicited functional effector T cells in vivo”.

In the case of `CC(C)C[C@H](NC(=O)[C@H](CC(=O)O)NC(=O)[C@H](CC(C)C)NC(=O)[C@H](Cc1ccc(O)cc1)NC(=O)[C@@H](N)CCC(=O)O)C(=O)N[C@@H](CCC(N)=O)C(=O)N[C@H](C(=O)N[C@@H](CCC(N)=O)C(=O)O)[C@@H](C)O` [Zfp236.1, E(y/D)LDLQTQ] (H-EYLDLQTQ-OH), the IC50 (H-2 K^d) is reported as greater than 70 µM.

With `CC[C@H](C)[C@H](NC(=O)[C@H](CS)NC(=O)CNC(=O)[C@H](Cc1c[nH]cn1)NC(=O)[C@H](Cc1ccccc1)NC(=O)CN)C(=O)N[C@@H](Cc1c[nH]cn1)C(=O)N[C@@H](CCC(=O)O)C(=O)N[C@H](C(=O)N[C@@H](CC(C)C)C(=O)O)C(C)C` [Slit3] (H-GFHGCIHEVL-OH) the IC50 (H-2 K^d; mutant neo-epitopes, read-out: measured IC50 / affinity for binding to K^d) was roughly 50 µM.

`CSCC[C@H](NC(=O)[C@@H]1CCCN1C(=O)[C@@H](NC(=O)[C@H](Cc1ccc(O)cc1)NC(=O)[C@@H](N)CC(=O)O)C(C)C)C(=O)N[C@@H](CCC(=O)O)C(=O)N[C@@H](CCC(N)=O)C(=O)N1CCC[C@H]1C(=O)N[C@@H](CCCNC(=N)N)C(=O)N1CCC[C@H]1C(=O)O` [Alkbh6.3] (H-DYVPMEQPRP-OH; N-terminus and C-terminus assumed) gave an IC50 (H-2 K^d; [4]) of 23.6 µM.

`CC(C)C[C@H](NC(=O)[C@H](CC(=O)O)NC(=O)[C@H](CC(C)C)NC(=O)[C@H](Cc1ccc(O)cc1)NC(=O)[C@@H](N)CCC(=O)O)C(=O)N[C@@H](CCC(N)=O)C(=O)N[C@H](C(=O)N[C@@H](CCC(N)=O)C(=O)NCC(=O)O)[C@@H](C)O` [Zfp236.2, E(y/D)LDLQTQG] (H-EYLDLQTQG-OH) was tested, and the IC50 (H-2 K^d) was greater than 70 µM.

With `CC(C)C[C@H](NC(=O)[C@H](CCC(=O)O)NC(=O)[C@H](CC(=O)O)NC(=O)[C@H](CCC(=O)O)NC(=O)[C@H](CC(C)C)NC(=O)[C@H](CC(C)C)NC(=O)CNC(=O)[C@H](CCC(N)=O)NC(=O)[C@H](CC(C)C)NC(=O)[C@@H](N)CCC(=O)O)C(=O)O` [Ccdc136] (H-ELQGLLEDEL-OH; N-terminus and C-terminus assumed) the “CD8 T cell response of immunized mice” value (CD8+ cells [1]) was “did not elicit a detectable response at all; also recorded: did not elicit a detectable CD8 response” and the IC50 (H-2 K^d; [4]) was 4.54 µM.

Work on `CC(C)C[C@H](NC(=O)CNC(=O)[C@H](CC(C)C)NC(=O)[C@H](CC(C)C)NC(=O)[C@H](CO)NC(=O)[C@H](CCCNC(=N)N)NC(=O)[C@H](CCCNC(=N)N)NC(=O)[C@H](CO)NC(=O)[C@H](CO)NC(=O)[C@H](Cc1c[nH]c2ccccc12)NC(=O)[C@@H](N)CO)C(=O)O` [9430016H08Rik] (H-SWSSRRSLLGL-OH) yielded an IC50 (H-2 K^d; WT counterpart peptide, read-out: Measured IC50 for K^d (Mut/WT): WT, class symbol) greater than 70 µM.

For `CC[C@H](C)[C@H](NC(=O)[C@H](C)NC(=O)[C@H](Cc1ccc(O)cc1)NC(=O)[C@H](CCC(N)=O)NC(=O)[C@@H](NC(=O)[C@H](CC(C)C)NC(=O)[C@H](Cc1ccc(O)cc1)NC(=O)[C@@H]1CCCN1)[C@@H](C)O)C(=O)N[C@H](C(=O)N[C@@H](CCSC)C(=O)N[C@@H](CC(C)C)C(=O)O)[C@@H](C)CC` [Dhx8.1] (H-PYLTQYAIIML-OH), the ELISpot (CD8+ cells [1]) was “+++++ (>100 spots/10^6 CD8 = +++++)”, the IC50 (H-2 K^d) was 1.65 µM and the IC50 (H-2 K^d; [3]) was 2.19 µM.

For `CC[C@H](C)[C@H](NC(=O)[C@H](CS)NC(=O)[C@H](CC(C)C)NC(=O)[C@H](C)NC(=O)[C@H](CCC(N)=O)NC(=O)[C@H](CC(C)C)NC(=O)[C@H](CCSC)NC(=O)[C@H](Cc1ccc(O)cc1)NC(=O)[C@@H](N)CO)C(=O)N1CCC[C@H]1C(=O)O` [Tnpo3.3] (H-SYMLQALCIP-OH), the IC50 (H-2 K^d) was 0.111 µM.

In the case of `CC[C@H](C)[C@H](NC(=O)[C@H](C)NC(=O)[C@H](Cc1ccc(O)cc1)NC(=O)[C@H](CCC(N)=O)NC(=O)[C@@H](NC(=O)[C@H](CC(C)C)NC(=O)[C@H](Cc1ccc(O)cc1)NC(=O)[C@@H]1CCCN1)[C@@H](C)O)C(=O)O` [Dhx8.2, P(y/D)LTQYAI] (H-PYLTQYAI-OH; N-terminus and C-terminus assumed), the ELISpot (CD8+ cells [1]) is reported as “+++++ (>100 spots/10^6 CD8 = +++++)”.

In the case of `CC[C@H](C)[C@H](NC(=O)[C@H](C)NC(=O)[C@H](Cc1ccc(O)cc1)NC(=O)[C@H](CCC(N)=O)NC(=O)[C@@H](NC(=O)[C@H](CC(C)C)NC(=O)[C@H](Cc1ccc(O)cc1)NC(=O)[C@@H]1CCCN1)[C@@H](C)O)C(=O)N[C@H](C(=O)N[C@@H](CCSC)C(=O)O)[C@@H](C)CC` [Dhx8.4] (H-PYLTQYAIIM-OH), the ELISpot (CD8+ cells [1]) is reported as “+++ (21-50 spots/10^6 CD8 = +++)”, the IC50 (H-2 K^d) is reported as 6.26 µM and the IC50 (H-2 K^d; [3]) is reported as 6.57 µM.

In the case of `CC(C)C[C@H](N)C(=O)N[C@@H](Cc1ccc(O)cc1)C(=O)N[C@@H](CC(=O)O)C(=O)N[C@H](C(=O)N[C@@H](CC(=O)O)C(=O)N[C@@H](C)C(=O)N[C@@H](C)C(=O)N[C@@H](Cc1ccccc1)C(=O)O)C(C)C` [Cpsf2, L(y/D)DVDAAF] (H-LYDVDAAF-OH), the ELISpot (CD8+ cells [1]) is reported as “+++ (21-50 spots/10^6 CD8 = +++)”, the IC50 (H-2 K^d) is reported as greater than 70 µM and the IC50 (H-2 K^d; [3]) is reported as 1.41 µM.

For `CSCC[C@H](NC(=O)[C@H](Cc1ccc(O)cc1)NC(=O)[C@@H](N)CO)C(=O)N[C@@H](CC(C)C)C(=O)N[C@@H](CCC(N)=O)C(=O)N[C@@H](C)C(=O)N[C@@H](CC(C)C)C(=O)N[C@@H](CS)C(=O)O` [Tnpo3.4, (sy/LD)MLQALC] (H-SYMLQALC-OH), the IC50 (H-2 K^d) was 0.089 µM.

`CC(C)C[C@H](NC(=O)[C@H](CCCNC(=N)N)NC(=O)[C@@H]1CCCN1C(=O)[C@H](CO)NC(=O)[C@H](CCCNC(=N)N)NC(=O)[C@H](Cc1ccc(O)cc1)NC(=O)[C@H](CCC(N)=O)NC(=O)[C@H](CCCNC(=N)N)NC(=O)[C@H](CCC(N)=O)NC(=O)[C@H](CC(C)C)NC(=O)[C@@H](N)CCCCN)C(=O)O` [Mast2] (H-KLQRQYRSPRL-OH) was tested, and the IC50 (H-2 K^d) was 8.51 µM.

`CSCC[C@H](NC(=O)[C@@H]1CCCN1C(=O)[C@@H](NC(=O)[C@H](Cc1ccc(O)cc1)NC(=O)[C@@H](N)CC(=O)O)C(C)C)C(=O)N[C@@H](CCC(=O)O)C(=O)N[C@@H](CCC(N)=O)C(=O)N1CCC[C@H]1C(=O)O` [Alkbh6.1, D(y/D)VPMEQP] (H-DYVPMEQP-OH) gave an IC50 (H-2 K^d) greater than 70 µM and an IC50 (H-2 K^d; [3]) of 60.9 µM.

With `CSCC[C@H](NC(=O)[C@H](CC(C)C)NC(=O)CNC(=O)[C@@H]1CCCN1C(=O)[C@H](Cc1ccccc1)NC(=O)[C@@H](N)C(C)C)C(=O)N[C@@H](CCC(=O)O)C(=O)N[C@@H](CC(C)C)C(=O)O` [Atxn10.2, VFPGLME(l/R)] (H-VFPGLMEL-OH; N-terminus and C-terminus assumed) the “CD8 T cell response of immunized mice” value (CD8+ cells [1]; text) was “did not elicit a detectable response at all”, the “CD8 T cell response of immunized mice” value (CD8+ cells [1]; text, listed as Atxn 10.2) was “did not elicit a detectable CD8 response” and the IC50 (H-2 K^d; [4]) was 1.11 µM.

With `CC(C)C[C@H](NC(=O)[C@H](CCC(=O)O)NC(=O)[C@H](Cc1c[nH]c2ccccc12)NC(=O)[C@H](CS)NC(=O)[C@@H](NC(=O)[C@H](CCC(=O)O)NC(=O)[C@H](CS)NC(=O)[C@H](Cc1ccc(O)cc1)NC(=O)[C@H](C)N)[C@@H](C)O)C(=O)O` [Apc] (H-AYCETCWEL-OH) the ELISpot (CD8+ cells [1]) was “+++++ (>100 spots/106 CD8 = +++++)” and the IC50 (H-2 K^d; [4]) was 0.06 µM.
